Source: patent US20250215039A1, “NUCLEOSIDES FOR TREATING CANCER” (PRIMEFOUR THERAPEUTICS, INC., priority 2022, published 2025)
Like-named read-outs stand apart in the source and are kept apart here.

Tested on: cancer cell lines
Test: Cancer cell proliferation activity (CellTiterGlo, 72 h)
Format: cell-based
Conditions: 72 h, 72 h, read-out: IC50 cell proliferation
Protocol: Dose response relationships on cell proliferation was assessed for representative Compounds of the Disclosure on cancer cell lines. Briefly, compound treatment of cells started one day after seeding with a final DMSO concentration of 0.1%, and was performed by nanodrop-dispensing using a Tecan Dispenser. 0.1% DMSO (solvent) and Staurosporine (10 μM) served as high control (100% viability) and low control (0% viability), respectively.
Cells were cultured in the appropriate media. For the assays, cells were seeded in white cell culture-treated flat and clear bottom multiwell plates and incubated at 37° C. overnight before compound was added. After incubation for 72 h at 37° C. at 5% or 10% CO2 dependent on the medium, cell plates were equilibrated to room temperature for one hour, CellTiterGlo reagent (Promega) was added and luminescence was measured approximately an hour later using a luminometer.
Raw data were converted into percent cell viability relative to the high and low control, which were set to 100% and 0%, respectively.
The IC50 values are summarized in Tables 9A-1, Table 10A, and Table 10B.

[1] = Homo sapiens, A204, 72 h, A204 (muscle)
[2] = Homo sapiens, ACHN, ACHN (kidney)
[3] = Homo sapiens, ASPC1, 72 h, ASPC1 (pancreas)
[4] = Homo sapiens, BXPC-3, 72 h, BXPC3 (pancreas)
[5] = Homo sapiens, Caco-2, 72 h, CACO2 (colon)
[6] = Homo sapiens, Granta-519, 72 h, GRANTA-519 (hematological)
[7] = Homo sapiens, Kasumi 1, 72 h, KASUMI-1 (hematological)
[8] = Homo sapiens, LoVo, LOVO (colon)
[9] = Homo sapiens, MDA-MB-231, 72 h, MDAMB231 (breast)
[10] = Homo sapiens, MDA-MB-436, 72 h, MDAMB436 (breast)
[11] = Homo sapiens, MINO, MINO (hematological)
[12] = Homo sapiens, SK-BR-3, 72 h, SKBR3 (breast)

| IC50 (5637 (bladder)) [µM] | IC50 [1] [µM] | IC50 [2] [µM] | IC50 [3] [µM] | IC50 [4] [µM] | IC50 [5] [µM] | IC50 [6] [µM] | IC50 [7] [µM] | IC50 [8] [µM] | IC50 [9] [µM] | IC50 [10] [µM] | IC50 [11] [µM] | IC50 [12] [µM] | IC50 (NCI-H358M, NCIH358M (lung)) [µM] | SMILES |
| --- | --- | --- | --- | --- | --- | --- | --- | --- | --- | --- | --- | --- | --- | --- |
| 2.06 | 1.71 | 3.83 | 0.62 | 3.28 | 1.5 | 5.22 | 0.21 | 0.49 | > 50 | 0.53 | 0.3 | 0.12 | 0.93 | Nc1nc(F)nc2c1ncn2[C@H]1C[C@H](O)[C@](CO)(CC2CC2)O1 [Cpd. No. 130, (2R,3S,5R)-5-(6-amino-2-fluoro-9H-purin-9-yl)-2-(cyclopropylmethyl)-2-(hydroxymethyl)tetrahydrofuran-3-ol] |
| 0.01 | 4.02 | 1.26 | 2.93 | 0.5 | 3.28 | 0.92 | 1.69 | 2.54 | 0.4 | 3.49 | 0.37 | 0.98 | 0.01 | C#C[C@]1(CO)O[C@@H](n2cc(Cl)c(N)nc2=O)C[C@@H]1O [Cpd. No. 109, 4-amino-5-chloro-1-((2R,4S,5R)-5-ethynyl-4-hydroxy-5-(hydroxymethyl)tetrahydrofuran-2-yl)pyrimidin-2(1H)-one] |
| 0.001 | 0.077 | 0.004 | 0.005 | 0.002 | 0.116 | 0.002 | 0.024 | 0.007 | 0.076 | 0.006 | 0.004 | 0.001 | 0.012 | O=c1[nH]c(=O)n([C@H]2C[C@H](O)[C@@H](CO)O2)cc1F [compound 185, 5-fluoro-1-((2R,4S,5R)-4-hydroxy-5-(hydroxymethyl)tetrahydrofuran-2-yl)pyrimidine-2,4(1H,3H)-dione] |
| > 50 | 1.83 | > 50 | > 50 | > 50 | > 50 | 1.4 | 1.46 | > 50 | 6.28 | > 50 | 2.7 | > 50 | 2.96 | CC[C@]1(CO)O[C@@H](n2cnc3c(O)nc(N)nc32)C[C@@H]1O [Cpd. No. 223, 2-amino-9-((2R,4S,5R)-5-ethyl-4-hydroxy-5-(hydroxymethyl)tetrahydrofuran-2-yl)-9H-purin-6-ol] |
| 7.01 | 0.63 | 2.81 | > 50 | > 50 | > 50 | 2.22 | 2.13 | > 50 | 3.4 | 4.09 | 1.72 | 3.45 | 1.07 | C[C@]1(CO)O[C@@H](n2cnc3c(O)nc(N)nc32)C[C@@H]1O [Cpd. No. 115, 2-amino-9-((2R,4S,5R)-4-hydroxy-5-(hydroxymethyl)-5-methyltetrahydrofuran-2-yl)-9H-purin-6-ol] |
| 2.22 | > 50 | 3.84 | 1.58 | 1 | > 50 | 1.86 | > 50 | > 50 | > 50 | > 50 | 2.34 | 0.97 | > 50 | N#C[C@]1(CO)O[C@@H](n2cc(F)c(=O)[nH]c2=O)C[C@@H]1O [Cpd. No. 107, (2R,3S,5R)-5-(5-fluoro-2,4-dioxo-3,4-dihydropyrimidin-1(2H)-yl)-3-hydroxy-2-(hydroxymethyl)tetrahydrofuran-2-carbonitrile] |
| 4.93 | 2.32 | 3.67 | 2.62 | > 50 | 7.85 | > 50 | 1.4 | 2.75 | > 50 | 2.9 | 1.75 | 1.06 | 1.98 | Nc1nc(F)nc2c1ncn2[C@H]1C[C@H](O)[C@](CO)(C2CC2)O1 [Cpd. No. 5, (2R,3S,5R)-5-(6-amino-2-fluoro-9H-purin-9-yl)-2-cyclopropyl-2-(hydroxymethyl)tetrahydrofuran-3-ol] |
| 3.9 | 1.35 | > 50 | 4.62 | > 50 | > 50 | 4.44 | 1.63 | > 50 | 1.69 | 3.85 | 2.54 | > 50 | 1.59 | C#C[C@]1(CO)O[C@@H](n2cnc3c(=O)[nH]c(N)nc32)[C@H](F)[C@@H]1O [compound 95, 2-amino-9-((2R,3R,4R,5R)-5-ethynyl-3-fluoro-4-hydroxy-5-(hydroxymethyl)tetrahydrofuran-2-yl)-1,9-dihydro-6H-purin-6-one] |
